From the NIST ThermoML archive (doi:10.1021/je5009679)
± gives the expanded uncertainty stated by the source.

Conditions: Liquid; for viscosity: Concentric cylinders viscometry

CCn1cc[n+](C)c1.CO[PH](=O)[O-] [1-ethyl-3-methylimidazolium methyl phosphonate]
101.33 kPa
Conditions	viscosity [mPa·s]
293.15 K	156.4 ± 7.6
303.15 K	89.9 ± 4.3
313.15 K	56.11 ± 2.6
323.15 K	37.41 ± 1.8
333.15 K	26.3 ± 1.2
343.15 K	19.32 ± 0.91
353.15 K	14.71 ± 0.69
363.15 K	11.54 ± 0.54
373.15 K	9.289 ± 0.44

Conditions	mass density [kg/m3]
293.15 K, 101.33 kPa, Vibrating tube method	1198.3 ± 1.1
303.15 K, 101.33 kPa, Vibrating tube method	1191.7 ± 1.1
311.2 K, 10000 kPa, Bellows volumetry	1189.6 ± 1.5
311.2 K, 20000 kPa, Bellows volumetry	1193.3 ± 1.5
311.2 K, 30000 kPa, Bellows volumetry	1197.1 ± 1.5
311.2 K, 40000 kPa, Bellows volumetry	1200.8 ± 1.5
311.2 K, 50000 kPa, Bellows volumetry	1204.4 ± 1.5
311.2 K, 60000 kPa, Bellows volumetry	1207.8 ± 1.5
311.2 K, 70000 kPa, Bellows volumetry	1211.3 ± 1.5
311.2 K, 80000 kPa, Bellows volumetry	1214.6 ± 1.5
311.2 K, 90000 kPa, Bellows volumetry	1217.9 ± 1.5
311.2 K, 100000 kPa, Bellows volumetry	1221 ± 1.5
311.2 K, 110000 kPa, Bellows volumetry	1224.2 ± 1.5
311.2 K, 120000 kPa, Bellows volumetry	1227.2 ± 1.5
311.2 K, 130000 kPa, Bellows volumetry	1230.3 ± 1.5
311.2 K, 140000 kPa, Bellows volumetry	1233.1 ± 1.5
311.2 K, 150000 kPa, Bellows volumetry	1236.1 ± 1.5
311.2 K, 160000 kPa, Bellows volumetry	1238.9 ± 1.5
311.2 K, 170000 kPa, Bellows volumetry	1241.7 ± 1.5
311.2 K, 180000 kPa, Bellows volumetry	1244.5 ± 1.5
311.2 K, 190000 kPa, Bellows volumetry	1247.2 ± 1.5
311.2 K, 200000 kPa, Bellows volumetry	1249.9 ± 1.5
313.15 K, 101.33 kPa, Vibrating tube method	1185.3 ± 1.1
323.15 K, 101.33 kPa, Vibrating tube method	1178.8 ± 1.1
330.9 K, 10000 kPa, Bellows volumetry	1176.8 ± 1.5
330.9 K, 20000 kPa, Bellows volumetry	1180.9 ± 1.5
330.9 K, 30000 kPa, Bellows volumetry	1184.9 ± 1.5
330.9 K, 40000 kPa, Bellows volumetry	1188.8 ± 1.5
330.9 K, 50000 kPa, Bellows volumetry	1192.5 ± 1.5
330.9 K, 60000 kPa, Bellows volumetry	1196.1 ± 1.5
330.9 K, 70000 kPa, Bellows volumetry	1199.8 ± 1.5
330.9 K, 80000 kPa, Bellows volumetry	1203.3 ± 1.5
330.9 K, 90000 kPa, Bellows volumetry	1206.6 ± 1.5
330.9 K, 100000 kPa, Bellows volumetry	1210 ± 1.5
330.9 K, 110000 kPa, Bellows volumetry	1213.3 ± 1.5
330.9 K, 120000 kPa, Bellows volumetry	1216.4 ± 1.5
330.9 K, 130000 kPa, Bellows volumetry	1219.5 ± 1.5
330.9 K, 140000 kPa, Bellows volumetry	1222.5 ± 1.5
330.9 K, 150000 kPa, Bellows volumetry	1225.4 ± 1.5
330.9 K, 160000 kPa, Bellows volumetry	1228.3 ± 1.5
330.9 K, 170000 kPa, Bellows volumetry	1231.2 ± 1.5
330.9 K, 180000 kPa, Bellows volumetry	1234 ± 1.5
330.9 K, 190000 kPa, Bellows volumetry	1236.7 ± 1.5
330.9 K, 200000 kPa, Bellows volumetry	1239.6 ± 1.5
333.15 K, 101.33 kPa, Vibrating tube method	1172.5 ± 1.1
343.15 K, 101.33 kPa, Vibrating tube method	1166.1 ± 1.1
351.3 K, 10000 kPa, Bellows volumetry	1164.2 ± 1.5
351.3 K, 20000 kPa, Bellows volumetry	1168.7 ± 1.5
351.3 K, 30000 kPa, Bellows volumetry	1172.8 ± 1.5
351.3 K, 40000 kPa, Bellows volumetry	1176.9 ± 1.5
351.3 K, 50000 kPa, Bellows volumetry	1180.9 ± 1.5
351.3 K, 60000 kPa, Bellows volumetry	1184.7 ± 1.5
351.3 K, 70000 kPa, Bellows volumetry	1188.4 ± 1.5
351.3 K, 80000 kPa, Bellows volumetry	1192 ± 1.5
351.3 K, 90000 kPa, Bellows volumetry	1195.5 ± 1.5
351.3 K, 100000 kPa, Bellows volumetry	1198.9 ± 1.5
351.3 K, 110000 kPa, Bellows volumetry	1202.1 ± 1.5
351.3 K, 120000 kPa, Bellows volumetry	1205.4 ± 1.5
351.3 K, 130000 kPa, Bellows volumetry	1208.7 ± 1.5
351.3 K, 140000 kPa, Bellows volumetry	1211.8 ± 1.5
351.3 K, 150000 kPa, Bellows volumetry	1214.8 ± 1.5
351.3 K, 160000 kPa, Bellows volumetry	1217.8 ± 1.5
351.3 K, 170000 kPa, Bellows volumetry	1220.8 ± 1.5
351.3 K, 180000 kPa, Bellows volumetry	1223.7 ± 1.5
351.3 K, 190000 kPa, Bellows volumetry	1226.6 ± 1.5
351.3 K, 200000 kPa, Bellows volumetry	1229.5 ± 1.5
353.15 K, 101.33 kPa, Vibrating tube method	1159.9 ± 1.1
363.15 K, 101.33 kPa, Vibrating tube method	1153.8 ± 1.1
371.3 K, 10000 kPa, Bellows volumetry	1152.1 ± 1.5
371.3 K, 20000 kPa, Bellows volumetry	1156.2 ± 1.5
371.3 K, 30000 kPa, Bellows volumetry	1161 ± 1.5
371.3 K, 40000 kPa, Bellows volumetry	1165.2 ± 1.5
371.3 K, 50000 kPa, Bellows volumetry	1169.2 ± 1.5
371.3 K, 60000 kPa, Bellows volumetry	1173.3 ± 1.5
371.3 K, 70000 kPa, Bellows volumetry	1177.2 ± 1.5
371.3 K, 80000 kPa, Bellows volumetry	1180.9 ± 1.5
371.3 K, 90000 kPa, Bellows volumetry	1184.5 ± 1.5
371.3 K, 100000 kPa, Bellows volumetry	1188.2 ± 1.5
371.3 K, 110000 kPa, Bellows volumetry	1191.6 ± 1.5
371.3 K, 120000 kPa, Bellows volumetry	1195 ± 1.5
371.3 K, 130000 kPa, Bellows volumetry	1198.3 ± 1.5
371.3 K, 140000 kPa, Bellows volumetry	1201.6 ± 1.5
371.3 K, 150000 kPa, Bellows volumetry	1204.7 ± 1.5
371.3 K, 160000 kPa, Bellows volumetry	1207.9 ± 1.5
371.3 K, 170000 kPa, Bellows volumetry	1210.9 ± 1.5
371.3 K, 180000 kPa, Bellows volumetry	1213.9 ± 1.5
371.3 K, 190000 kPa, Bellows volumetry	1216.8 ± 1.5
371.3 K, 200000 kPa, Bellows volumetry	1219.8 ± 1.5
373.15 K, 101.33 kPa, Vibrating tube method	1147.6 ± 1.1
391.2 K, 10000 kPa, Bellows volumetry	1140.6 ± 1.5
391.2 K, 20000 kPa, Bellows volumetry	1144.9 ± 1.5
391.2 K, 30000 kPa, Bellows volumetry	1149.5 ± 1.5
391.2 K, 40000 kPa, Bellows volumetry	1154 ± 1.5
391.2 K, 50000 kPa, Bellows volumetry	1158.2 ± 1.5
391.2 K, 60000 kPa, Bellows volumetry	1162.3 ± 1.5
391.2 K, 70000 kPa, Bellows volumetry	1166.4 ± 1.5
391.2 K, 80000 kPa, Bellows volumetry	1170.4 ± 1.5
391.2 K, 90000 kPa, Bellows volumetry	1174.1 ± 1.5
391.2 K, 100000 kPa, Bellows volumetry	1177.9 ± 1.5
391.2 K, 110000 kPa, Bellows volumetry	1181.4 ± 1.5
391.2 K, 120000 kPa, Bellows volumetry	1184.9 ± 1.5
391.2 K, 130000 kPa, Bellows volumetry	1188.3 ± 1.5
391.2 K, 140000 kPa, Bellows volumetry	1191.6 ± 1.5
391.2 K, 150000 kPa, Bellows volumetry	1194.9 ± 1.5
391.2 K, 160000 kPa, Bellows volumetry	1198.1 ± 1.5
391.2 K, 170000 kPa, Bellows volumetry	1201.2 ± 1.5
391.2 K, 180000 kPa, Bellows volumetry	1204.2 ± 1.5
391.2 K, 190000 kPa, Bellows volumetry	1207.2 ± 1.5
391.2 K, 200000 kPa, Bellows volumetry	1210.2 ± 1.5
411.1 K, 10000 kPa, Bellows volumetry	1128.7 ± 1.5
411.1 K, 20000 kPa, Bellows volumetry	1133.3 ± 1.5
411.1 K, 30000 kPa, Bellows volumetry	1138.1 ± 1.5
411.1 K, 40000 kPa, Bellows volumetry	1142.8 ± 1.5
411.1 K, 50000 kPa, Bellows volumetry	1147.3 ± 1.5
411.1 K, 60000 kPa, Bellows volumetry	1151.7 ± 1.5
411.1 K, 70000 kPa, Bellows volumetry	1155.8 ± 1.5
411.1 K, 80000 kPa, Bellows volumetry	1159.9 ± 1.5
411.1 K, 90000 kPa, Bellows volumetry	1163.9 ± 1.5
411.1 K, 100000 kPa, Bellows volumetry	1167.6 ± 1.5
411.1 K, 110000 kPa, Bellows volumetry	1171.3 ± 1.5
411.1 K, 120000 kPa, Bellows volumetry	1174.9 ± 1.5
411.1 K, 130000 kPa, Bellows volumetry	1178.4 ± 1.5
411.1 K, 140000 kPa, Bellows volumetry	1181.8 ± 1.5
411.1 K, 150000 kPa, Bellows volumetry	1185.3 ± 1.5
411.1 K, 160000 kPa, Bellows volumetry	1188.5 ± 1.5
411.1 K, 170000 kPa, Bellows volumetry	1191.7 ± 1.5
411.1 K, 180000 kPa, Bellows volumetry	1194.8 ± 1.5
411.1 K, 190000 kPa, Bellows volumetry	1197.9 ± 1.5
411.1 K, 200000 kPa, Bellows volumetry	1201 ± 1.5
